Experimental data taken from US12599611B2, “Methods and compositions for treating seizure disorders in pediatric patients” (Neurelis, Inc., priority 2021, dated 2026).

Tested on: beta frequency by EEG
Assay: EEG monitoring of beta rhythm / beta frequency after diazepam administration
Settings: after intranasal administration of 20 mg of diazepam via an intranasal composition

CN1C(=O)CN=C(c2ccccc2)c2cc(Cl)ccc21 [diazepam, 7-chloro-1,3-dihydro-1-methyl-5-phenyl-1,4-benzodiazepin-2-one]
time to changes in beta frequency (EEG): ≤ 10 min
